Activity calls are given as the source filed them. The calls are words filed in the database; no cut-off is given here.
Assays:
[1] = target: Serine/threonine-protein kinase PAK 5 (Homo sapiens) (UniProt Q9P286); test: Inhibition of PAK7 (unknown origin) assessed as remaining activity at 1 uM by Kinome scan method relative to control
[2] = target: Mitogen-activated protein kinase 4 (Homo sapiens) (UniProt P31152); test: Inhibition of ERK4 (unknown origin) assessed as remaining activity at 1 uM by Kinome scan method relative to control
[3] = Induction of cell cycle arrest in human RV-1 cells assessed as accumulation of cells at G1 phase at 2.5 uM incubated for 5 days in presence of MK2206 by propidium iodide staining based flow cytometric analysis (reference value: 59.7 %); assay type: functional; conditions: time 5 day
[4] = target: cAMP-dependent protein kinase catalytic subunit PRKX (Homo sapiens) (UniProt P51817); test: Inhibition of PRKX (unknown origin) assessed as remaining activity at 1 uM by Kinome scan method relative to control
[5] = target: Mitogen-activated protein kinase kinase kinase 15 (Homo sapiens) (UniProt Q6ZN16); test: Inhibition of MAP3K15 (unknown origin) assessed as remaining activity at 1 uM by Kinome scan method relative to control
[6] = target: Mitogen-activated protein kinase kinase kinase 11 (Homo sapiens) (UniProt Q16584); test: Inhibition of MLK3 (unknown origin) assessed as remaining activity at 1 uM by Kinome scan method relative to control
[7] = target: Serine/threonine-protein kinase ULK1 (Homo sapiens) (UniProt O75385); test: Inhibition of ULK1 (unknown origin) assessed as remaining activity at 1 uM by Kinome scan method relative to control
RV-1 [8] = test: Antiproliferative activity against human RV-1 cells assessed as reduction in cell viability at 500 to 2500 nM incubated for 5 days in presence of Torin1 by CellTiter-Glo assay; assay type: functional, cell-based; conditions: dose 500-2500 nM, time 5.0 day
[9] = target: Citron Rho-interacting kinase (Homo sapiens) (UniProt O14578); test: Inhibition of CIT (unknown origin) assessed as remaining activity at 1 uM by Kinome scan method relative to control
[10] = target: Receptor tyrosine-protein kinase erbB-4 (Homo sapiens) (UniProt Q15303); test: Inhibition of ERBB4 (unknown origin) assessed as remaining activity at 1 uM by Kinome scan method relative to control
RV-1 [11] = test: Down regulation of BMX protein expression in human RV-1 cells expressing wild type BMX at 5 uM incubated for 72 hrs by western blot analysis; assay type: functional, cell-based
[12] = target: Phosphatidylinositol 5-phosphate 4-kinase type-2 gamma (Homo sapiens) (UniProt Q8TBX8); test: Inhibition of PIP5K2C (unknown origin) assessed as remaining activity at 1 uM by Kinome scan method relative to control
[13] = target: Vascular endothelial growth factor receptor 3 (Homo sapiens) (UniProt P35916); test: Inhibition of FLT4 (unknown origin) assessed as remaining activity at 1 uM by Kinome scan method relative to control
[14] = target: Death-associated protein kinase 1 (Homo sapiens) (UniProt P53355); test: Inhibition of DAPK1 (unknown origin) assessed as remaining activity at 1 uM by Kinome scan method relative to control
[15] = target: Serine/threonine-protein kinase pim-3 (Homo sapiens) (UniProt Q86V86); test: Inhibition of PIM3 (unknown origin) assessed as remaining activity at 1 uM by Kinome scan method relative to control
[16] = target: Phosphatidylinositol 5-phosphate 4-kinase type-2 beta (Homo sapiens) (UniProt P78356); test: Inhibition of PIP5K2B (unknown origin) assessed as remaining activity at 1 uM by Kinome scan method relative to control
[17] = target: Serine/threonine-protein kinase PAK 2 (Homo sapiens) (UniProt Q13177); test: Inhibition of PAK2 (unknown origin) assessed as remaining activity at 1 uM by Kinome scan method relative to control
[18] = target: Ribosomal protein S6 kinase alpha-1 (Homo sapiens) (UniProt Q15418); test: Inhibition of N-terminal kinase domain RSK1 (unknown origin) assessed as remaining activity at 1 uM by Kinome scan method relative to control
[19] = target: Tyrosine-protein kinase Lyn (Homo sapiens) (UniProt P07948); test: Inhibition of LYN (unknown origin) assessed as remaining activity at 1 uM by Kinome scan method relative to control
[20] = Down regulation of BMX protein expression in human RV-1 cells expressing BMX C496S mutant assessed protein expression level at 2.5 uM pre incubated for 4 hrs followed by compound wash out and additon of CHX and measured after 24 hrs by immunoblot analysis (reference value: 1.01 to 1.13); assay type: functional
[21] = target: Serine/threonine-protein kinase PAK 1 (Homo sapiens) (UniProt Q13153); test: Inhibition of PAK1 (unknown origin) assessed as remaining activity at 1 uM by Kinome scan method relative to control
[22] = target: STE20/SPS1-related proline-alanine-rich protein kinase (Homo sapiens) (UniProt Q9UEW8); test: Inhibition of STK39 (unknown origin) assessed as remaining activity at 1 uM by Kinome scan method relative to control
[23] = Inhibition of PI3K/AKT/mTOR signalling pathway in human RV-1 cells assessed as decrease in AKT phosphorylation at S473 residue at 2.5 uM incubated for 4 hrs by immunoblot analysis; assay type: cell-based
[24] = target: Tyrosine-protein kinase Fgr (Homo sapiens) (UniProt P09769); test: Inhibition of FGR (unknown origin) assessed as remaining activity at 1 uM by Kinome scan method relative to control
[25] = target: Dual specificity testis-specific protein kinase 1 (Homo sapiens) (UniProt Q15569); test: Inhibition of TESK1 (unknown origin) assessed as remaining activity at 1 uM by Kinome scan method relative to control
[26] = target: RAC-alpha serine/threonine-protein kinase (Homo sapiens) (UniProt P31749); test: Inhibition of AKT1 (unknown origin) assessed as remaining activity at 1 uM by Kinome scan method relative to control
[27] = target: Phosphatidylinositol 4,5-bisphosphate 3-kinase catalytic subunit gamma isoform (Homo sapiens) (UniProt P48736); test: Inhibition of PIK3CG (unknown origin) assessed as remaining activity at 1 uM by Kinome scan method relative to control
RV-1 [28] = test: Antiproliferative activity against human RV-1 cells assessed as reduction in cell viability at 500 to 2500 nM incubated for 5 days in presence of erlotinib by CellTiter-Glo assay; assay type: functional, cell-based; conditions: dose 500-2500 nM, time 5.0 day
[29] = target: Tyrosine-protein kinase TXK (Homo sapiens) (UniProt P42681); test: Inhibition of TXK (unknown origin) assessed as remaining activity at 1 uM by Kinome scan method relative to control
[30] = target: Serine/threonine-protein kinase ULK3 (Homo sapiens) (UniProt Q6PHR2); test: Inhibition of ULK3 (unknown origin) assessed as remaining activity at 1 uM by Kinome scan method relative to control
[31] = target: Cyclin-G-associated kinase (Homo sapiens) (UniProt O14976); test: Inhibition of GAK (unknown origin) assessed as remaining activity at 1 uM by Kinome scan method relative to control
[32] = target: Peripheral plasma membrane protein CASK (Homo sapiens) (UniProt O14936); test: Inhibition of CASK (unknown origin) assessed as remaining activity at 1 uM by Kinome scan method relative to control

Chain of Tyrosine-protein kinase Lyn (Homo sapiens) (P07948 2-512 limits assumed): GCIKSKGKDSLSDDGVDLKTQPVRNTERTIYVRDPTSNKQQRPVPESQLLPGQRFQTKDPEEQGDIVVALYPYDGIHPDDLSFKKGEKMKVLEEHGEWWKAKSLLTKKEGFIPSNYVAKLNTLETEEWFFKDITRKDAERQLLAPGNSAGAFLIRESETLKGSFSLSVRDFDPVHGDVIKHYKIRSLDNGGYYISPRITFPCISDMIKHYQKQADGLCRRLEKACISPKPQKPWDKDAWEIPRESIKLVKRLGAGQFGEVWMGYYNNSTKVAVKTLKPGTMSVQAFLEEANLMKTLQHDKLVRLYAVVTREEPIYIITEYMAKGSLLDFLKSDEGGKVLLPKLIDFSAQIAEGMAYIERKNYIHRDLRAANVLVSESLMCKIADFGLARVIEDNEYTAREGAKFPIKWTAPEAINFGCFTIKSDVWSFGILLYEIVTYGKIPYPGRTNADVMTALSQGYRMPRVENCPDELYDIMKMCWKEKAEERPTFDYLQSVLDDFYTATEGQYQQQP
Chain of Cyclin-G-associated kinase (Homo sapiens) (O14976 whole entry): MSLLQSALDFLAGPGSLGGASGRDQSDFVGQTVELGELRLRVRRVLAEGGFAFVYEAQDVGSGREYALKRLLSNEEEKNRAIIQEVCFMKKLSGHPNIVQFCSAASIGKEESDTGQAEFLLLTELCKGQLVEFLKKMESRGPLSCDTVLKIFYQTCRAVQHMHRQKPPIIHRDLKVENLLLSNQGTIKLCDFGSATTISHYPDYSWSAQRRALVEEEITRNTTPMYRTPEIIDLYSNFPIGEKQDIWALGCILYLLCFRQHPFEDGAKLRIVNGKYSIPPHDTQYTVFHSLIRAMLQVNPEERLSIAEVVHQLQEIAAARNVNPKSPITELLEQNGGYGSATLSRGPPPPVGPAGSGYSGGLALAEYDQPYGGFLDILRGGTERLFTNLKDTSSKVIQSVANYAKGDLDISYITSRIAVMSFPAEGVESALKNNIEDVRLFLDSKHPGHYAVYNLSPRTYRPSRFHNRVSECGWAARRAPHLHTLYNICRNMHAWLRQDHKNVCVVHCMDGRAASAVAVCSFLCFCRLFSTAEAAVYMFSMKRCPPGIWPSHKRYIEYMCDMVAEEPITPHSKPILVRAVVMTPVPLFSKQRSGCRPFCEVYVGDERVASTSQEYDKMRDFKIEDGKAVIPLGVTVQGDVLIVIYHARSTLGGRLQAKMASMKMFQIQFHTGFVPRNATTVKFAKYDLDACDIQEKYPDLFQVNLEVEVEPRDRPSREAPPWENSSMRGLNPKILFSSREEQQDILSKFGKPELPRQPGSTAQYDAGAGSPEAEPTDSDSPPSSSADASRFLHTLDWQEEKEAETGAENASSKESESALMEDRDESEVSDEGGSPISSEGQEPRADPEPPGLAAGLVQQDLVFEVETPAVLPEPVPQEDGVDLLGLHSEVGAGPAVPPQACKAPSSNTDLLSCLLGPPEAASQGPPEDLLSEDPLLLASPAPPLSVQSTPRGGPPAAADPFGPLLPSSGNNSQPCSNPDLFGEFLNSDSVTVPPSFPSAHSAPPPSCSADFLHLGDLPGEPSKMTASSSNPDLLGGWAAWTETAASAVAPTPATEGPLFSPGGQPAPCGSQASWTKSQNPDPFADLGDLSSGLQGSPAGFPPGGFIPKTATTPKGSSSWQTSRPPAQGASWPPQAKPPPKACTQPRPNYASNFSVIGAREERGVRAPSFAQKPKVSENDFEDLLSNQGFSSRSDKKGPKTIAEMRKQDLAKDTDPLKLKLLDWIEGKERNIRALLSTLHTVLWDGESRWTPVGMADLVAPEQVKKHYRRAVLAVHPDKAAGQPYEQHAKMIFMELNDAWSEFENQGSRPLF
Chain of Phosphatidylinositol 5-phosphate 4-kinase type-2 beta (Homo sapiens) (P78356 whole entry): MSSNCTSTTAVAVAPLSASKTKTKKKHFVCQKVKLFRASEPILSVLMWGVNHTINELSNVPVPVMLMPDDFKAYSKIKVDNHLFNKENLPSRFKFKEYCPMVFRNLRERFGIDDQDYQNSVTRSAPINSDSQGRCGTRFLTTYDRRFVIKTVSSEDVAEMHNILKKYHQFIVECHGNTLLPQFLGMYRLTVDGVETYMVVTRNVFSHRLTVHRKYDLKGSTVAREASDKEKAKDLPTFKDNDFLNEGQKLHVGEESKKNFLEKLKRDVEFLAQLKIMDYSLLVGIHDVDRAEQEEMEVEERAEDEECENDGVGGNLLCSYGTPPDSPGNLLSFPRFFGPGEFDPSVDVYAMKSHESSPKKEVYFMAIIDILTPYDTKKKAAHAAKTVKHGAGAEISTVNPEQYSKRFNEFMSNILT
Chain of Tyrosine-protein kinase TXK (Homo sapiens) (P42681 whole entry): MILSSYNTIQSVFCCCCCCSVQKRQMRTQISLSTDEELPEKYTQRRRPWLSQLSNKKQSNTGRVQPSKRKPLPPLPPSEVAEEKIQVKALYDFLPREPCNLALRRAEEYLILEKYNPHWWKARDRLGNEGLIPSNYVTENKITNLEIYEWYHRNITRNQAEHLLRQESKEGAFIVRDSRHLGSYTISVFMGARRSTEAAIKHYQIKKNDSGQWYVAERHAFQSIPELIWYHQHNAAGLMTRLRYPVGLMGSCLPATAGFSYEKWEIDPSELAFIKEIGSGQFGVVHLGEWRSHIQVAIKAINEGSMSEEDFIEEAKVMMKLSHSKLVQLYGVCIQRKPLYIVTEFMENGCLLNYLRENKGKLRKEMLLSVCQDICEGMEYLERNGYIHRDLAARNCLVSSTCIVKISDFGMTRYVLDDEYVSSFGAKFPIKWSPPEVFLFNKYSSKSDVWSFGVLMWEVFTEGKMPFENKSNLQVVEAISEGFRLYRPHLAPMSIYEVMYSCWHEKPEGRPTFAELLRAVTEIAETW
Chain of Mitogen-activated protein kinase kinase kinase 11 (Homo sapiens) (Q16584 whole entry, looked up): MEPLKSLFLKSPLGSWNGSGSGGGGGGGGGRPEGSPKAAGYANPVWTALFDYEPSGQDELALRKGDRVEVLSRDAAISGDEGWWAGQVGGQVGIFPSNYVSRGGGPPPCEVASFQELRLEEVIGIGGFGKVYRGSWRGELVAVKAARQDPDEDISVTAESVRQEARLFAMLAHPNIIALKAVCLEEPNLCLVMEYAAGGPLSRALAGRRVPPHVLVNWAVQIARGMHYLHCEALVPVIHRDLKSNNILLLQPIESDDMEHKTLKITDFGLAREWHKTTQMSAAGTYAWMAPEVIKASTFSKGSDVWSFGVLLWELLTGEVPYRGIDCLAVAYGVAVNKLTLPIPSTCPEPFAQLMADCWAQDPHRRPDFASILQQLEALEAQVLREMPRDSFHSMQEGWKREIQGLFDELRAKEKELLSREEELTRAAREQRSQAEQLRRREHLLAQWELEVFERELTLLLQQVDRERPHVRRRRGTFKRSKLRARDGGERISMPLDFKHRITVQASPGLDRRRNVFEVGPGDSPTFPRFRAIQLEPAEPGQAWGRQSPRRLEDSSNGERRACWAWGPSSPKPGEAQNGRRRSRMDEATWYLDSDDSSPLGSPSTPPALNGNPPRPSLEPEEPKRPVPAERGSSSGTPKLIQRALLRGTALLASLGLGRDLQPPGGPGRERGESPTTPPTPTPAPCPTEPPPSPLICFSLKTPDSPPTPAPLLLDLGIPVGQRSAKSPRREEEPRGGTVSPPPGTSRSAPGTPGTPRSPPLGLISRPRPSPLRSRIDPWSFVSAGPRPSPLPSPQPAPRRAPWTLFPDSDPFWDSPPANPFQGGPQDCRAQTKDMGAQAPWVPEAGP
Chain of Receptor tyrosine-protein kinase erbB-4 (Homo sapiens) (Q15303 whole entry): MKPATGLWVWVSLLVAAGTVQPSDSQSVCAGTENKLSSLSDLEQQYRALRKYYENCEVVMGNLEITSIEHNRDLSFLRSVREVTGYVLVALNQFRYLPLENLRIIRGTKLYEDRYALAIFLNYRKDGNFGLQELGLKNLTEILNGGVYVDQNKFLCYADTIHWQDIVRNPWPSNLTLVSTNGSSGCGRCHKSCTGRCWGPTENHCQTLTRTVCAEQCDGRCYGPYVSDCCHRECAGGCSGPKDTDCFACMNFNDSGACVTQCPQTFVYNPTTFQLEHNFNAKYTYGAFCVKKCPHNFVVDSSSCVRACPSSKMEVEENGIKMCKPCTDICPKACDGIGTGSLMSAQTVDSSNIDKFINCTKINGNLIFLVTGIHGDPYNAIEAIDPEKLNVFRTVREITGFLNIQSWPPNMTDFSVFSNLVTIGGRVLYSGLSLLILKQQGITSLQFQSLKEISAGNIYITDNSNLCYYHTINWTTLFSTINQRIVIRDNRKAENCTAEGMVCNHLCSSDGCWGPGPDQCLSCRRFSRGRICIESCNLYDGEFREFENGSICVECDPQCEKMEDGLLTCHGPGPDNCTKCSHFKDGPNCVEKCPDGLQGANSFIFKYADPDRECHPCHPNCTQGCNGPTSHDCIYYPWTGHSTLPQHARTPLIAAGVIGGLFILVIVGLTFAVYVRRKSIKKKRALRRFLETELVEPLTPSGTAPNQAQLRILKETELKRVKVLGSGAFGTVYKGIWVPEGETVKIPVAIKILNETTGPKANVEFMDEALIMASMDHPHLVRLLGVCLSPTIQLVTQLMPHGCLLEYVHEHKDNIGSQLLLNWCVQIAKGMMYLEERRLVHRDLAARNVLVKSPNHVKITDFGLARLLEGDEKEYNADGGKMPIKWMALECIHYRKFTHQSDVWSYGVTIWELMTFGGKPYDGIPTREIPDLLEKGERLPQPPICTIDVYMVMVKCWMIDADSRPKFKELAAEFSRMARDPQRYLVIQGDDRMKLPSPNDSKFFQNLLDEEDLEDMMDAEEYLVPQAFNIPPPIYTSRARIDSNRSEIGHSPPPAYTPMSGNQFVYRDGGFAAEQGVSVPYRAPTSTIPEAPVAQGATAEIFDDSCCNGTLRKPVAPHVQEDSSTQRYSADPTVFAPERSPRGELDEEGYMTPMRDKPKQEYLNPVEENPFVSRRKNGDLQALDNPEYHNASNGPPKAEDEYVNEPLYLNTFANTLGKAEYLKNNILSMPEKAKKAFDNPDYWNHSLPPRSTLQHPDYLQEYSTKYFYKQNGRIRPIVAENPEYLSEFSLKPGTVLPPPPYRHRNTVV

Compound `C=CC(=O)Nc1cc(-n2c(=O)ccc3cnc4ccc(-c5ccc(NS(C)(=O)=O)cc5)cc4c32)ccc1C` has an Activity [1] of 98%, an Activity [2] of 91% and an Activity [3] of 64.2%. For the same compound, the Activity [4] was 77%, the Activity [5] was 70% and the Activity [6] was 91%. The Activity [7] was 84%, the Activity (RV-1 [8]) was “Active” and the Activity [9] was 83%. The Activity [10] was 78%, the Activity (RV-1 [11]) was “Active” and the Activity [12] was 5.6%. For the same compound, the Activity [13] was 72%, the Activity [14] was 96% and the Activity [15] was 83%. It also gave an Activity [16] of 93%, an Activity [17] of 78% and an Activity [18] of 76%. It also gave an Activity [19] of 92%, an Activity [20] of 0.83 and an Activity [21] of 86%. For the same compound, the Activity [22] was 68%, the inhibition [23] was “inactive” and the Activity [24] was 72%. The Activity [25] was 94%, the Activity [26] was 12% and the Activity [27] was 2.8%. The Activity (RV-1 [28]) was “Active”, the Activity [29] was 25% and the Activity [30] was 80%. For the same compound, the Activity [31] was 74% and the Activity [32] was 61%.

Reference: ChEMBL document CHEMBL5715949, “Discovery of a selective irreversible BMX inhibitor for prostate cancer” (ACS Chem Biol, 2013)
